Measured values as given in paper PMC3078958 (Archives of biochemistry and biophysics, 2011).

Molecular target: T1, CsOxOx (Ceriporiopsis subvermispora bicupin oxalate oxidase, isoform-G) (Gelatoporia subvermispora, UniProt Q5ZH56)
T1 sequence (Q5ZH56 21-461): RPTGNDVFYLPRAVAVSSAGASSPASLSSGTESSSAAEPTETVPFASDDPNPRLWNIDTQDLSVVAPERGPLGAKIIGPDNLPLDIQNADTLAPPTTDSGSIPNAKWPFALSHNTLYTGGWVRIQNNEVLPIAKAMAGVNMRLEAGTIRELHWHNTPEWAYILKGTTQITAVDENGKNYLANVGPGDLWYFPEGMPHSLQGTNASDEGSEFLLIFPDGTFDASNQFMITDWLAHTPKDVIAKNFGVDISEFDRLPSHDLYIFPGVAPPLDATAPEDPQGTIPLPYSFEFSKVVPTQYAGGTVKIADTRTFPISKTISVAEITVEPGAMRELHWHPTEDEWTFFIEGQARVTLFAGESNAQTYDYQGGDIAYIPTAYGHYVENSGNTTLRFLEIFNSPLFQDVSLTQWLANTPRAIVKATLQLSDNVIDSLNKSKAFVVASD
Test: continuous coupled HRP/ABTS assay of H2O2 production, […] nm
Format: biochemical

Ki [mM]	SMILES
3.9 ± 0.6	CC(=O)O [acetate]
28 ± 5	O=C(O)CO [glycolate]
15 ± 3	O=CC(=O)O [glyoxylate]
3 ± 0.3	O=C(O)CC(=O)O [malonate]
17 ± 3	CC(=O)C(=O)O [pyruvate]

SMILES	Ki [mM]
O=C(O)C[C@H](O)C(=O)O [malate]	52 ± 6
